Reference: ChEMBL document CHEMBL1151215, “Isotsaokoin, an antifungal agent from Amomum tsao-ko” (2004)
The source made the active and inactive calls. The rule behind the calls is not given here.

Assays:
[1] = system: Trichophyton mentagrophytes; assay: Antifungal activity against Trichophyton mentagrophytes KCTC 6085 at 60 ug/disk after 4 days by paper-disk agar diffusion assay; assay type: functional, organism-based
[2] = system: Trichophyton mentagrophytes; assay: Antifungal activity against Trichophyton mentagrophytes KCTC 6085 at 20 ug/disk after 4 days by paper-disk agar diffusion assay; assay type: functional; conditions: KCTC 6085, 96 h, read-out: IZ
[3] = system: Trichophyton mentagrophytes; assay: Antifungal activity against Trichophyton mentagrophytes KCTC 6085 at 40 ug/disk after 4 days by paper-disk agar diffusion assay; assay type: functional; conditions: KCTC 6085, 96 h, read-out: IZ

SMILES | Activity [1] | zone of inhibition at 20 µg/disc [2] [mm] | zone of inhibition at 40 µg/disc [3] [mm]
OCC1=CC[C@@H](O)[C@H]2CCC[C@@H]12 | inactive | – | –
O=CC1=CC[C@@H](O)[C@@H]2CCC[C@H]12 (relative stereo) [ISOTSAOKOIN] | – | 1.5 | 2
C[C@@H]1[C@H](O)[C@@H](C)/C=C/C=C/C=C/C=C/C=C/C=C/C=C/[C@H](O[C@@H]2O[C@H](C)[C@@H](O)[C@H](N)[C@@H]2O)C[C@@H]2O[C@](O)(C[C@@H](O)C[C@@H](O)[C@H](O)CC[C@@H](O)C[C@@H](O)CC(=O)O[C@H]1C)C[C@H](O)[C@H]2C(=O)O [AMPHOTERICIN B] | – | 2.5 | 3
